What was measured:
[1] = biological target: Envelope glycoprotein gp160 (Human immunodeficiency virus 1, UniProt Q6QLK5); assay: Binding affinity to HIV1 N-terminal 2,2-bipyridine-5-carboxylate-capped Envelope glycoprotein gp41 Fe2(env2.0)3 by C18FL probe based fluorescence quenching assay
[2] = system: Human immunodeficiency virus 1; assay: Antiviral activity against HIV-1 3B infected in human MAGI-CXCR4 cells assessed as reduction in viral infection after 48 hrs by fluorescence based beta-galactosidase reporter gene assay; assay type: functional, organism-based; conditions: Human immunodeficiency virus 1, 3B
[3] = Cytotoxicity against human PBMC by MTS or resazurin dye based assay; assay type: cell-based
[4] = system: Human immunodeficiency virus 1; assay: Antiviral activity against HIV-1 Bal infected in human MAGI-CCR5 cells assessed as reduction in viral infection after 48 hrs by fluorescence based beta-galactosidase reporter gene assay; assay type: functional, organism-based; conditions: Human immunodeficiency virus 1, Bal, MAGI-CCR5, 48 h
[5] = Cytotoxicity against human MAGI cells by MTS or resazurin dye based assay; assay type: cell-based

Chain of Envelope glycoprotein gp160 (Q6QLK5 whole entry): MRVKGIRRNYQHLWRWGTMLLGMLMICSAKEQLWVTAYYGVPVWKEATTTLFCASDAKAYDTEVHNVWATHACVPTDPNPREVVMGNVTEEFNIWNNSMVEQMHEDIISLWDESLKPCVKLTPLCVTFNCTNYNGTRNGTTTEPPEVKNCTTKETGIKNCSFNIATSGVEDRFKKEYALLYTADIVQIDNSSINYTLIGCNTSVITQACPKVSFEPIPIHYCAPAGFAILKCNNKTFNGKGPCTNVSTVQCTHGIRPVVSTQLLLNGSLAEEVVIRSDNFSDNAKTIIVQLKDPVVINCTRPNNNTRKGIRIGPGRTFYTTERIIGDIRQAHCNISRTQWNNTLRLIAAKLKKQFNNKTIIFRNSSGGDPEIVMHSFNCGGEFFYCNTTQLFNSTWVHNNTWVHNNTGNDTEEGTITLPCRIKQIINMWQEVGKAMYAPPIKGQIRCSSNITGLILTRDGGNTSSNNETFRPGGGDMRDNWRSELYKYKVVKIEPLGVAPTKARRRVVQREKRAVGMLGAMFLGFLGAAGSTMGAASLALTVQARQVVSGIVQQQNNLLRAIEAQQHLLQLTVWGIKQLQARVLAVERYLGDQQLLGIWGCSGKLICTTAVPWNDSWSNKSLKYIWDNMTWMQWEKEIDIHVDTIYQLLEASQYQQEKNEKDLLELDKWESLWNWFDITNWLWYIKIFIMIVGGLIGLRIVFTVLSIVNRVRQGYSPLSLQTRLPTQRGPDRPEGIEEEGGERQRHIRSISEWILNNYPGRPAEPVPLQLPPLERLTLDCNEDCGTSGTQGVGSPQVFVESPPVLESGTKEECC

SMILES	Ki [1]	IC50 [2]	CC50 [3]	IC50 [4]	CC50 [5]
COc1cccc(CNc2cccc(-c3ccc4ccn(Cc5cccc(C(=O)O)c5)c4c3)c2)c1	1.5 µM	> 20 µM	> 10 µM	> 20 µM	
CC(C)(C)OC(=O)n1ccc2ccc(-c3ccc4ccn(Cc5cccc(C(=O)O)c5)c4c3)cc21	1.9 µM	1 µM	> 20 µM	0.9 µM	
Cn1ccc2ccc(-c3ccc4cnn(Cc5cc(F)cc(C(=O)O)c5)c4c3)cc21	2.1 µM	> 20 µM	> 20 µM	> 20 µM	
CC(C)(C)OC(=O)Nc1cccc(Cn2ccc3ccc(-c4ccc5ccn(Cc6cccc(C(=O)O)c6)c5c4)cc32)c1	1.5 µM	0.5 µM	> 20 µM	0.4 µM	
Cc1ccc(S(=O)(=O)n2ccc3ccc(-c4ccc5ccn(Cc6cccc(C(=O)O)c6)c5c4)cc32)cc1	1.2 µM	0.9 µM	> 50 µM	0.8 µM	
COC(=O)c1cccc(Cn2ccc3ccc(-c4ccc5cnn(Cc6cccc(C(=O)O)c6)c5c4)cc32)c1	3.2 µM	2.5 µM	> 20 µM	3.1 µM	
CC(C)(C)OC(=O)N1CCC(Cn2ccc3ccc(-c4ccc5ccn(Cc6cccc(C(=O)O)c6)c5c4)cc32)CC1	1.2 µM	0.6 µM	> 20 µM	0.6 µM	
Cn1cc2ccc(-c3ccc4ccn(Cc5cc(F)cc(C(=O)O)c5)c4c3)cc2n1	6.4 µM	> 20 µM	> 20 µM	14 µM	
CN(C(=O)OC(C)(C)C)c1cccc(-c2ccc3ccn(Cc4cccc(C(=O)O)c4)c3c2)c1	1.6 µM	11.3 µM	> 20 µM	15.6 µM	
COc1cccc(CN(C(=O)OC(C)(C)C)c2cccc(-c3ccc4ccn(Cc5cccc(C(=O)O)c5)c4c3)c2)c1	0.45 µM	4.2 µM	> 10 µM	5.5 µM	
Nc1ccc(Cn2ccc3ccc(-c4ccc5ccn(Cc6cccc(C(=O)O)c6)c5c4)cc32)cc1	3.1 µM	1.3 µM	> 20 µM	1.1 µM	
COc1cccc(CN(C)c2cccc(-c3ccc4ccn(Cc5cccc(C(=O)O)c5)c4c3)c2)c1	0.8 µM	1.2 µM	> 20 µM	1.6 µM	
O=C(O)c1cccc(Cn2ccc3ccc(-c4ccc5ccn(Cc6cccc(OC(F)(F)F)c6)c5c4)cc32)c1	2.3 µM	1.5 µM	> 20 µM	1.4 µM	
COc1cc(Cn2ccc3ccc(-c4ccc5ccn(Cc6cccc(C(=O)O)c6)c5c4)cc32)cc(C(=O)O)c1	0.8 µM	> 20 µM	> 20 µM	> 20 µM	
CC(C)(C)OC(=O)N1CCc2ccc(-c3ccc4ccn(Cc5cccc(C(=O)O)c5)c4c3)cc21	0.9 µM	2.8 µM	> 25 µM	2.3 µM	
CC(C)(C)OC(=O)c1cccc(Cn2ccc3ccc(-c4ccc5ccn(Cc6cccc(C(=O)O)c6)c5c4)cc32)c1	0.3 µM	0.2 µM	> 10 µM	0.2 µM	
Cn1ccc2cc(F)c(-c3ccc4ccn(Cc5cc(F)cc(C(=O)O)c5)c4c3)cc21	2 µM	7.8 µM	> 20 µM	9.7 µM	

SMILES	Ki [1]	IC50 [2]	CC50 [3]	IC50 [4]	CC50 [5]
Cn1ccc2ccc(-c3ccc4c(c3)N(Cc3cccc(C(=O)O)c3)CC4)cc21	10 µM	> 25 µM	> 50 µM	> 25 µM	
COC(=O)c1cc(Cn2ccc3ccc(-c4ccc5ccn(Cc6cccc(C(=O)O)c6)c5c4)cc32)cc(C(=O)OC)c1	1 µM	0.6 µM	> 20 µM	0.6 µM	
COC(=O)c1cccc(Cn2ncc3ccc(-c4ccc5ccn(Cc6cccc(C(=O)O)c6)c5c4)cc32)c1	1 µM	1.4 µM	> 50 µM	1.4 µM	
COc1cccc(CN2CCc3ccc(-c4ccc5ccn(Cc6cccc(C(=O)O)c6)c5c4)cc32)c1	3.6 µM	2.4 µM	> 25 µM	1.9 µM	
COC(=O)c1cccc(Cn2ccc3cc(F)c(-c4ccc5ccn(Cc6cccc(C(=O)O)c6)c5c4)cc32)c1	0.7 µM	0.4 µM	> 20 µM	0.5 µM	
COC(=O)c1ccc(Cn2ccc3ccc(-c4ccc5ccn(Cc6cccc(C(=O)O)c6)c5c4)cc32)c(OC)c1	0.4 µM	3.1 µM	25 µM	4.2 µM	25 µM
Cn1ncc2ccc(-c3ccc4cnn(Cc5ccc(F)c(C(=O)O)c5)c4c3)cc21	19 µM	> 20 µM	200 µM	> 20 µM	200 µM
COc1cccc(Cn2ccc3ccc(-c4ccc5c(C)cn(Cc6cccc(C(=O)O)c6)c5c4)cc32)c1	1.2 µM	12.9 µM	70 µM	10.5 µM	70 µM
COC(=O)c1cc(F)cc(Cn2ccc3ccc(-c4ccc5ccn(Cc6cccc(C(=O)O)c6)c5c4)cc32)c1	1 µM	0.5 µM	> 20 µM	0.4 µM	
Cn1ncc2ccc(-c3ccc4ccn(Cc5cc(F)cc(C(=O)O)c5)c4c3)cc21	2.5 µM	11.3 µM	> 20 µM	10.1 µM	
O=C(O)c1cccc(Cn2ccc3ccc(-c4ccc5ccn(Cc6cccc([N+](=O)[O-])c6)c5c4)cc32)c1	2.7 µM	3.4 µM	> 20 µM	2.8 µM	
Cn1ccc2ccc(-c3ccc4ccn(Cc5cc(F)cc(C(=O)O)c5)c4c3)cc21	3 µM	9.1 µM	> 20 µM	8.2 µM	
CC(=O)Nc1cccc(Cn2ccc3ccc(-c4ccc5ccn(Cc6cccc(C(=O)O)c6)c5c4)cc32)c1	0.9 µM	4.5 µM	> 20 µM	4.7 µM	
COc1cccc(Cn2ccc3ccc(-c4ccc5cn(Cc6cccc(C(=O)O)c6)nc5c4)cc32)c1	1 µM	5.5 µM	> 20 µM	5.8 µM	
COc1cccc(Cn2ccc3cc(F)c(-c4ccc5ccn(Cc6cccc(C(=O)O)c6)c5c4)cc32)c1	5 µM	7 µM	> 20 µM	9.4 µM	
Cc1cn(C(=O)OC(C)(C)C)c2cc(-c3ccc4ccn(Cc5cccc(C(=O)O)c5)c4c3)ccc12	4.7 µM	1.7 µM	> 20 µM	1.2 µM	

Reference: ChEMBL document CHEMBL4325884, “Investigation of the molecular characteristics of bisindole inhibitors as HIV-1 glycoprotein-41 fusion inhibitors” (Eur J Med Chem, 2019)
